Test results reported in patent US8940720B2, “Macrocycles as factor XIa inhibitors” (Bristol-Myers Squibb Company, priority 2010, dated 2015).
Where a name gives a salt, the structure may show the parent alone.

Target: purified human Factor XIa (Homo sapiens (Human), UniProt P03951)
Test: Factor XIa enzyme inhibition assay (chromogenic substrate S-2366)
Format: biochemical
Conditions: substrate S-2366, pH 7.4
Protocol: The effectiveness of compounds of the present invention as inhibitors of the coagulation Factors XIa, VIIa, IXa, Xa, XIIa, plasma kallikrein or thrombin, can be determined using a relevant purified serine protease, respectively, and an appropriate synthetic substrate. The rate of hydrolysis of the chromogenic or fluorogenic substrate by the relevant serine protease was measured both in the absence and presence of compounds of the present invention. […] A decrease in the rate of absorbance or fluorescence change in the presence of inhibitor is indicative of enzyme inhibition. Such methods are known to one skilled in the art. The results of this assay are expressed as the inhibitory constant, Ki.
Values of Ki were determined by allowing the protease to react with the substrate in the presence of the inhibitor. Reactions were allowed to go for periods of 20-180 minutes (depending on the protease) and the velocities (rate of absorbance or fluorescence change versus time) were measured. The following relationships were used to calculate Ki values: (vo−vs)/vs=I/(Ki(1+S/Km)) for a competitive inhibitor with one binding site; or vs/vo=A+((B−A)/1+((IC50/(I)n))); and Ki=IC50/(1+S/Km) for a competitive inhibitor where: […]

purified human Factor XIa, sequence (P03951 388-625): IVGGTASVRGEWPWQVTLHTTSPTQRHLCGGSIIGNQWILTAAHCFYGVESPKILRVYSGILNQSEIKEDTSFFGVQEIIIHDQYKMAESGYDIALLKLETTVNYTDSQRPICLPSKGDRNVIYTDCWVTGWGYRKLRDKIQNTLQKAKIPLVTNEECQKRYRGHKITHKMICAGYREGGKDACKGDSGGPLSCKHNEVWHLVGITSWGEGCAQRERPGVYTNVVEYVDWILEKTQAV
purified human Factor XIa, sequence (P03951 19-387 partner): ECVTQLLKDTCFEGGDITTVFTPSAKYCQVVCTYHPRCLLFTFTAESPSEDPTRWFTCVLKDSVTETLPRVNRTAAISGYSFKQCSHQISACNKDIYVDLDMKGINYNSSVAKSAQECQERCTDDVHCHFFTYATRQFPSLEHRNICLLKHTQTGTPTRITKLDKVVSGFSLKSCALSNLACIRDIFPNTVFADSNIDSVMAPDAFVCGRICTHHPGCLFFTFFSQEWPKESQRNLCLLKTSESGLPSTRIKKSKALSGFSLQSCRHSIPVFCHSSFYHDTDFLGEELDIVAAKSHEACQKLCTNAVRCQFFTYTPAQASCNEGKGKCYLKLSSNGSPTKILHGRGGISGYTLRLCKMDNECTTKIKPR

| Structure (SMILES) | Ki [nM] |
| --- | --- |
| COC(=O)Nc1ccc2c(c1)N[C@@H](CO)CCCC[C@H](NC(=O)/C=C/c1cc(Cl)ccc1-n1cnnn1)c1nc-2c[nH]1 [Example I-77, {(9R,14S)-14-[(E)-3-(5-Chloro-2-tetrazol-1-yl-phenyl)-acryloylamino]-9-hydroxymethyl-8,16,18-triaza-tricyclo[13.2.1.0^2,7]octadeca-1(17),2,4,6,15(18)-pentaen-5-yl}-carbamic acid methyl ester, 2 TFA salt] | < 5 |
| COC(=O)Nc1ccc2c(c1)NC(C(=O)OC)(C(F)(F)F)CCCC[C@H](NC(=O)/C=C/c1cc(Cl)ccc1-n1cnnn1)c1nc-2c[nH]1 (stereo partly drawn) [Example I-104] | 435 |
| COC(=O)Nc1ccc2c(c1)/N=C/CCCC[C@H](NC(=O)/C=C/c1cc(Cl)ccc1-n1cnnn1)c1nc-2c(F)[nH]1 [Example I-107, {(E)-(S)-14-[(E)-3-(5-Chloro-2-tetrazol-1-yl-phenyl)-acryloylamino]-17-fluoro-8,16,18-triaza-tricyclo[13.2.1.0^2,7]octadeca-1(17),2,4,6,8,15(18)-hexaen-5-yl}-carbamic acid methyl ester, trifluoroacetic acid salt] | 29 |
| COC(=O)Nc1ccc2c(c1)N(C(=O)OC)CCCCC[C@H](NC(=O)/C=C/c1cc(Cl)ccc1-n1cnnn1)c1nc-2c[nH]1 [Example I-108] | 3870 |
| COC(=O)Nc1ccc2c(c1)NC(C(N)=O)C(C)CCC[C@H](NC(=O)/C=C/c1cc(Cl)ccc1-n1cnnn1)c1nc-2c[nH]1 (stereo partly drawn) [Example I-114] | 296 |
| COC(=O)Nc1ccc2c(c1)NCCCCC[C@H](NC(=O)/C=C/c1cc(Cl)ccc1-n1cnnn1)c1nc-2c(C#N)[nH]1 [Example I-115, {(S)-14-[(E)-3-(5-Chloro-2-tetrazol-1-yl-phenyl)-acryloylamino]-17-cyano-8,16,18-triaza-tricyclo[13.2.1.0^2,7]octadeca-1(17),2,4,6,15(18)-pentaen-5-yl}-carbamic acid methyl ester, 2 TFA salt] | < 5 |
| CCOC(=O)CN1CCCC[C@H](NC(=O)/C=C/c2cc(Cl)ccc2-n2cnnn2)c2nc(c[nH]2)-c2ccc(NC(=O)OC)cc2C1 [Example I-121] | 736 |
| O=C(/C=C/c1cc(Cl)ccc1-n1cnnn1)N[C@H]1CCCCCNc2cc(NC(=O)OC[C@H]3CCCO3)ccc2-c2c[nH]c1n2 [Example I-124] | < 5 |
| COC(=O)Nc1ccc2c(c1)NC(=O)CCCC[C@H](NC(=O)/C=C/c1cc(Cl)ccc1-n1cnnn1)C1=NC=C2O1 [Example I-134, Methyl N-[(14S)-14-[(2E)-3-[5-chloro-2-(1H-1,2,3,4-tetrazol-1-yl)phenyl]prop-2-enamido]-9-oxo-18-oxa-8,16-diazatricyclo[13.2.1.0^2,7]octadeca-1(17),2(7),3,5,15-pentaen-5-yl]carbamate, trifluoroacetic acid salt] | < 5 |
| COC(=O)Nc1ccc2c(c1)NC(=O)CC/C=C/C[C@H](NC(=O)c1ccc3c(c1)CCNC3)c1nc-2c[nH]1 [Example I-151] | < 5 |
| COC(=O)Nc1ccc2c(c1)NC(=O)CC/C=C/C[C@H](NC(=O)c1ccc3c(c1)CCC[C@H]3N)c1nc-2c[nH]1 [Example I-152] | 21 |
| COC(=O)Nc1ccc2c(c1)NC(=O)CC/C=C/C[C@H](NC(=O)c1ccc3c(c1)CCC[C@@H]3N)c1nc-2c[nH]1 [Example I-153] | 1650 |
| Cc1cc(F)c(C(=O)N[C@H]2C/C=C/CCC(=O)Nc3cc(NC(=O)OCCN(C)C)ccc3-c3nc2[nH]c3Cl)c(F)c1 [Example I-183, [(E)-(S)-18-Chloro-15-(2,6-difluoro-4-methyl-benzoylamino)-9-oxo-8,17,19-triaza-tricyclo[14.2.1.0^2,7]nonadeca-1(18),2,4,6,12,16(19)-hexaen-5-yl]-carbamic acid 2-dimethylamino-ethyl ester, 2 TFA] | 4950 |
| COC(=O)Nc1ccc2c(c1)NC(C(F)(F)F)CC/C=C/C[C@H](NC(=O)/C=C/c1cc(Cl)ccc1-n1cnnn1)c1nc-2c[nH]1 (stereo partly drawn) [Example I-211] | 2170 |
| O=C(/C=C/c1cc(Cl)ccc1-n1cnnn1)N[C@H]1C/C=C/CCC(=O)Nc2ccc(F)cc2-c2nc1[nH]c2Cl [Example I-227] | < 5 |
| CCOC(=O)[C@H]1CCCC[C@H](NC(=O)/C=C/c2cc(Cl)ccc2-n2cnnn2)c2nc(c(C)[nH]2)-c2ccc(NC(=O)OC)cc2N1 [Example I-242, (9R,14S)-14-[(E)-3-(5-Chloro-2-tetrazol-1-yl-phenyl)-acryloylamino]-5-methoxycarbonylamino-17-methyl-8,16,18-triaza-tricyclo[13.2.1.0^2,7]octadeca-1(17),2,4,6,15(18)-pentaene-9-carboxylic acid ethyl ester, bis-trifluoroacetic acid salt] | 456 |
| CCOC(=O)[C@H]1CCCC[C@H](NC(=O)/C=C/c2cc(Cl)ccc2-n2cnnn2)c2nc(c(C#N)[nH]2)-c2ccc(NC(=O)OC)cc2N1 [Example I-251, (9R,14S)-14-[(E)-3-(5-Chloro-2-tetrazol-1-yl-phenyl)-acryloylamino]-17-cyano-5-methoxycarbonylamino-8,16,18-triaza-tricyclo[13.2.1.0^2,7]octadeca-1(17),2,4,6,15(18)-pentaene-9-carboxylic acid ethyl ester, 2 TFA] | < 5 |
| COC(=O)Nc1ccc2c(c1)CC(C(=O)N(C)C)CCCC[C@H](NC(=O)/C=C/c1cc(Cl)ccc1-n1cnnn1)c1nc-2c[nH]1 (stereo partly drawn) [Example I-258] | 947 |
| COC(=O)Nc1ccc2c(c1)NC(=O)CCCC[C@H](NC(=O)c1ccc3cccnc3c1)c1nc-2c[nH]1 [Example I-262] | 675 |

| Structure (SMILES) | Ki [nM] |
| --- | --- |
| COC(=O)Nc1ccc2c(c1)NCCCCC[C@H](NC(=O)/C=C/c1c(C(C)=O)ccc(Cl)c1F)c1nc-2c(C#N)[nH]1 [Example I-265] | 133 |
| COC(=O)Nc1ccc2c(c1)NCCCCC[C@H](NC(=O)/C=C/c1cc(C)ccc1-n1cnnn1)c1nc-2c(C#N)[nH]1 [Example I-268] | 9 |
| COC(=O)Nc1ccc2c(c1)C(=O)C(F)(F)CCCC[C@H](NC(=O)/C=C/c1cc(Cl)ccc1-n1cnnn1)c1nc-2c[nH]1 [Example I-270, {(S)-14-[(E)-3-(5-Chloro-2-tetrazol-1-yl-phenyl)-acryloylamino]-9,9-difluoro-8-oxo-16,18-diaza-tricyclo[13.2.1.0^2,7]octadeca-1(17),2,4,6,15(18)-pentaen-5-yl}-carbamic acid methyl ester, TFA salt] | 1740 |
| COCCOC(=O)Nc1ccc2c(c1)N[C@@H](C(=O)OC)CCCC[C@H](NC(=O)/C=C/c1cc(Cl)ccc1-n1cnnn1)c1nc-2c(C#N)[nH]1 [Example I-278] | < 5 |
| COC(=O)c1ccc2c(c1)-c1c[nH]c(n1)[C@@H](NC(=O)/C=C/c1cc(Cl)ccc1-n1cnnn1)C/C=C/CCC(=O)N2 [Example I-284] | 102 |
| COC(=O)Nc1ccc2c(c1)NCCCCC[C@H](NC(=O)/C=C/c1cc(Cl)ccc1-n1cnnn1)c1nc-2c(C(=O)N(C)C)[nH]1 [Example I-299] | 19 |
| COC(=O)Nc1ccc2c(c1)NC(=O)CC/C=C/C[C@H](NC(=O)/C=C/c1cccc(Cl)c1)c1nc-2c(Cl)[nH]1 [Example I-309] | 9 |
| COC(=O)Nc1ccc2c(c1)NC(=O)CC/C=C/C[C@H](NC(=O)/C=C/c1c(C(F)(F)F)ccc(Cl)c1F)c1nc-2c(Cl)[nH]1 [Example I-311] | < 5 |
| COC(=O)Nc1ccc2c(c1)NC(=O)CC/C=C/C[C@H](NC(=O)c1ccc(C(=N)N)cc1)c1cc-2ccn1 [II-3] | < 5 |
| COC(=O)Nc1ccc2c(c1)NC(=O)CCCC[C@H](NC(=O)c1c(F)cc(C)cc1F)c1cc-2ccn1 [II-4] | 111 |
| COC(=O)Nc1ccc2c(c1)NC(=O)CCCCC(NC(=O)/C=C/c1cc(Cl)ccc1-n1cnnn1)c1cc-2nc(C)n1 (stereo not drawn) [II-10] | 23 |
| COC(=O)Nc1ccc2c(c1)NC(C(F)(F)F)CCCC[C@H](NC(=O)C1CCC(CN)CC1)c1cc-2ccn1 (stereo partly drawn) [II-13] | < 5 |
| COC(=O)Nc1ccc2c(c1)NC(C(F)(F)F)CCCC[C@H](NC(=O)c1ccc(C(=N)N)cc1)c1cc-2ccn1 (stereo partly drawn) [II-15] | 4160 |
| CCOC(=O)C1CCCC[C@H](NC(=O)/C=C/c2cc(Cl)ccc2-n2cnnn2)c2cc(ccn2)-c2ccc(NC(=O)OC)cc2N1 (stereo partly drawn) [II-18] | 572 |
| COC(=O)Nc1ccc2c(c1)N[C@@H](C(=O)N1CCN(C)CC1)CCCC[C@H](NC(=O)/C=C/c1cc(Cl)ccc1-n1cnnn1)c1cc-2ccn1 [II-35] | < 5 |
| CCOC(=O)[C@@H]1CCCC[C@H](NC(=O)/C=C/c2c(-n3cnnn3)ccc(Cl)c2F)c2cc(ccn2)-c2ccc(NC(=O)OCCOC)cc2N1 [II-43] | 938 |
| COC(=O)Nc1ccc2c(c1)N[C@@H](C(=O)NCc1ccccn1)CCCC[C@H](NC(=O)/C=C/c1cc(Cl)ccc1-n1cnnn1)c1cncc-2c1 [II-58] | 21 |
| CCOC(=O)C1CCCCC(NC(=O)/C=C/c2cc(Cl)ccc2-n2cnnn2)c2cc(cc(=O)[nH]2)-c2ccc(NC(=O)OC)cc2N1 (stereo not drawn) [II-62] | < 5 |

System: not given
Test: not given
Conditions: from C=CCC(=O)Nc1cc(NC(=O)OC)ccc1-c1cc(C(CC=C)NC(=O)OC(C)(C)C)nc(C)n1; rcm bond; Grubbs II; DCM; 0.5 mM; 40.0 °C; 4.0 h

| Structure (SMILES) | ring closure, yield of all isomers [%] |
| --- | --- |
| COC(=O)Nc1ccc2c(c1)NC(=O)C/C=C/CC(NC(=O)OC(C)(C)C)c1cc-2nc(C)n1 (stereo not drawn) | 22 |

Same assay, conditions: from C=CCCC(=O)Nc1cc(NC(=O)OC)ccc1-c1ccnc([C@H](CC=C)NC(=O)OC(C)(C)C)c1; rcm bond; Grubbs II; DCM; 0.99 mM; 40.0 °C; 1.5 h

| Structure (SMILES) | ring closure, yield of all isomers [%] |
| --- | --- |
| COC(=O)Nc1ccc2c(c1)NC(=O)CCC=CC[C@H](NC(=O)OC(C)(C)C)c1cc-2ccn1 | 75 |
